This is an account of results in US6300368A, “Anilide derivatives and antiarrhythmic agents containing the same” (priority 1998, dated 2001).

Molecules are shown by their SMILES. Where two headings read alike, the source gives them in different places.

For one data set, the system named is Purkinje's fiber. Put plainly: Effects on ventricle: action potential of Purkinje's fiber from dog right ventricular free wall (Pharmacological Trial 2). In kind it is cell-based. The note with it: Canis lupus familiaris. An excerpt: Pharmacological Trial 2: Evaluation of Effects on Ventricle
Method: Purkinje's fiber specimen excised from the right ventricular free wall of dog, perfused with normal Tyrode solution and driven by electrical stimulation (fundamental frequency=1 Hz) was used. Standard glass microelectrode was used to record action potential.

The next data set relates to ventricular function. The note with it: cited from earlier work.
The subject of data set [1] is aconitin-induced atrial fibrillation. Put plainly: Aconitin-induced atrial fibrillation model in anaesthetized dogs (Pharmacological Trial 1). In kind it is in vivo, dog. Particulars: Canis lupus familiaris; intravenous, anesthetized dogs, as hydrochloride; read-out: minimum dose level which suppresses atrial fibrillation. Here is the method:
Pharmacological Trial 1: Evaluation of effectiveness in aconitin-induced atrial fibrillation model (dogs) Evaluation was performed according to K. Hashimoto (Jpn. J. Pharmacol., Vol. 46, 349-358, 1988) as follows:
Method: Dog was anesthetized and thoracotomy was made. Persistent atrial fibrillation was induced by placing a piece of filter paper impregnated with 0.5% aconitin solution (20 to 30 μl) on the right atrium. […] Onset and suppression of atrial fibrillation were monitored electrocardiographically by placing Ag--AgCl bipolar electrode on the right atrial auricle.
Results: Each compound in Examples 1 to 87 suppressed atrial fibrillation at least following dose level (all compounds were used in the form of hydrochloride).

Regarding `CC(=O)Nc1ccc(OCCNC(C)C)cc1.Cl` [Reference 1, 4'-[2-(Isopropylamino)ethoxy]acetanilide Hydrochloride], the inhibition at 30 µM with Purkinje's fiber (30 μM, read-out: suppression of Vmax (maximum rate of rise for action potential)) turned out to be 15%. Besides, in the data set with ventricular function, the “action on ventricular function” value is “act suppressively on ventricular function”.

Consider `CN(CCOc1ccc(NS(C)(=O)=O)cc1)CCc1ccc(NS(C)(=O)=O)cc1` [Dofetilide], for which the activation at 10 µM in the data set on Purkinje's fiber (read-out: extension of APD50 (duration to repolarize 50%)) came out at 57%; in the data set with Purkinje's fiber (read-out: extension of APD75 (duration to repolarize 75%)) it was 45%; in the data set with Purkinje's fiber (read-out: extension of APD90 (duration to repolarize 90%)) it was 42%.

For `O=C(NCC1CCCCN1)c1cc(OCC(F)(F)F)ccc1OCC(F)(F)F` (stereo not drawn) [Flecanide], the inhibition at 3 µM in the data set with Purkinje's fiber (3 μM, read-out: suppression of Vmax (maximum rate of rise for action potential)) was found to be 30%.

For the compound `CC(C)N(CCC(C(N)=O)(c1ccccc1)c1ccccn1)C(C)C` (stereo not drawn) [Disopyramido], in the data set on Purkinje's fiber (read-out: suppression of Vmax (maximum rate of rise for action potential)), the inhibition at 30 µM worked out at 33%.

For `CC(=O)Nc1ccc(OCCNC2CCCCC2)cc1` [4'-[2-(cyclohexylamino)ethoxy] acetanilide], the “action on ventricular function” value with ventricular function is “act suppressively on ventricular function”.

`Cc1cc(NC(=O)C2CCOCC2)cc(C)c1OCCNC(C)C.Cl` [Example 85, 4'-[2-(Isopropylamino)ethoxy]-3',5'-dimethyl-3,4,5,6-tetrahydro-2H-pyran-4-carboxanilide Hydrochloride]: the minimal effective dose in data set [1] was determined as 10 mg/kg.

As to `COc1cccc(OC)c1C(=O)Nc1ccc(OCCNC2CC2)cc1` [Example 50, 4'-[2-(Cyclopropylamino)ethoxy]-2,6-dimethoxybenzanilide], the minimal effective dose in data set [1] came to 3 mg/kg.

In the case of `CCNCCOc1ccc(NC(=O)c2ccccc2NS(C)(=O)=O)cc1.Cl` [Example 21, 4'-[(2-Ethylamino)ethoxy]-2-(methanesulfonamido) benzanilide Hydrochloride], in data set [1], the minimal effective dose came out at 10 mg/kg.

Regarding `COc1cccc(OC)c1C(=O)Nc1ccc(OCCNC2CCCCC2)cc1` [Example 55, 4'-[2-(Cyclohexylamino)ethoxy]-2,6-dimethoxybenzanilide], the minimal effective dose in data set [1] is 0.3 mg/kg.
